Reference: ChEMBL document CHEMBL1201862, “PubChem BioAssay data set” (2004)
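Test compounds were applied to cells in 96-well plates for 48 hours at 5 doses. Abbreviation: GI50, concentration required for 50% inhibition of growth.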 Active and inactive are the calls of the source. No stated cut-off is given here; in the data, active = GI50 up to about 1.1 µM and inactive = higher.

Assays:
Test in all cases: NCI anticancer screen, dose series, 48 h
UACC-62 = tested on: UACC-62
A498 = tested on: A498
OVCAR-8 = tested on: OVCAR-8
UACC-257 = tested on: UACC-257
BT-549 = tested on: BT-549
HCC 2998 = tested on: HCC 2998
NCI-H23 = tested on: NCI-H23
TK-10 = tested on: TK-10
RXF 393 = tested on: RXF 393
HCT-15 = tested on: HCT-15
PC-3 = tested on: PC-3
NCI-H460 = tested on: NCI-H460
HL-60 = tested on: HL-60
SNB-19 = tested on: SNB-19
KM12 = tested on: KM12
COLO 205 = tested on: COLO 205
MOLT-4 = tested on: MOLT-4
MDA-MB-435 = tested on: MDA-MB-435
SF-295 = tested on: SF-295
IGROV-1 = tested on: IGROV-1
HCT-116 = tested on: HCT-116
HOP-62 = tested on: HOP-62
Malme-3M = tested on: Malme-3M
SK-MEL-5 = tested on: SK-MEL-5
SK-MEL-28 = tested on: SK-MEL-28
Hs-578T = tested on: Hs-578T
U-251 = tested on: U-251
EKVX = tested on: EKVX
LOX IMVI = tested on: LOX IMVI
MDA-MB-231 = tested on: MDA-MB-231
NCI-H226 = tested on: NCI-H226
DU-145 = tested on: DU-145
A549 = tested on: A549
T47D = tested on: T47D
K562 = tested on: K562
OVCAR-5 = tested on: OVCAR-5
OVCAR-3 = tested on: OVCAR-3
CCRF-CEM = tested on: CCRF-CEM
HOP-92 = tested on: HOP-92
SF-539 = tested on: SF-539
ACHN = tested on: ACHN
HT-29 = tested on: HT-29
RPMI-8226 = tested on: RPMI-8226
MDA-N = tested on: MDA-N
UO-31 = tested on: UO-31
OVCAR-4 = tested on: OVCAR-4
SF-268 = tested on: SF-268
SW-620 = tested on: SW-620
MCF7 = tested on: MCF7
SNB-75 = tested on: SNB-75
786-0 = tested on: 786-0
CAKI-1 = tested on: CAKI-1
SR = tested on: SR
NCI/ADR-RES = tested on: NCI/ADR-RES
SK-MEL-2 = tested on: SK-MEL-2
SK-OV-3 = tested on: SK-OV-3
SN12C = tested on: SN12C
M14 = tested on: M14
NCI-H522 = tested on: NCI-H522

SMILES: CC(C)C[C@H]1[C@@H](OCc2ccccc2)COS(=O)(=O)N1[C@H](C)c1ccccc1
- GI50 (UACC-62): > 100 µM (inactive)
- GI50 (A498): > 100 µM (inactive)
- GI50 (OVCAR-8): > 61.5 µM (inactive)
- GI50 (UACC-257): 20 µM (inactive)
- GI50 (BT-549): > 58.2 µM (inactive)
- GI50 (HCC 2998): > 100 µM (inactive)
- GI50 (NCI-H23): 6.98 µM (inactive)
- GI50 (TK-10): 83 µM (inactive)
- GI50 (RXF 393): 29.1 µM (inactive)
- GI50 (HCT-15): 29.1 µM
- GI50 (PC-3): 7.38 µM (inactive)
- GI50 (NCI-H460): 11.7 µM (inactive)
- GI50 (HL-60): 6.11 µM (inactive)
- GI50 (SNB-19): > 46 µM (inactive)
- GI50 (KM12): 47.1 µM (inactive)
- GI50 (COLO 205): > 72.6 µM (inactive)
- GI50 (MOLT-4): 3.8 µM (inactive)
- GI50 (MDA-MB-435): 49.7 µM (inactive)
- GI50 (SF-295): 9.12 µM (inactive)
- GI50 (IGROV-1): > 100 µM (inactive)
- GI50 (HCT-116): 5.24 µM (inactive)
- GI50 (HOP-62): > 84.1 µM (inactive)
- GI50 (Malme-3M): > 27.2 µM (inactive)
- GI50 (SK-MEL-5): 5.55 µM (inactive)
- GI50 (SK-MEL-28): > 100 µM (inactive)
- GI50 (Hs-578T): > 100 µM (inactive)
- GI50 (U-251): 15.2 µM (inactive)
- GI50 (EKVX): 22.1 µM (inactive)
- GI50 (LOX IMVI): 13.4 µM (inactive)
- GI50 (MDA-MB-231): 48 µM (inactive)
- GI50 (NCI-H226): > 92 µM (inactive)
- GI50 (DU-145): 37.9 µM (inactive)
- GI50 (A549): 29.5 µM (inactive)
- GI50 (T47D): 2.9 µM (inactive)
- GI50 (K562): 5.24 µM (inactive)
- GI50 (OVCAR-5): > 100 µM (inactive)
- GI50 (OVCAR-3): 20.6 µM (inactive)
- GI50 (CCRF-CEM): 8.71 µM (inactive)
- GI50 (HOP-92): > 100 µM (inactive)
- GI50 (SF-539): > 100 µM (inactive)
- GI50 (ACHN): 48 µM (inactive)
- GI50 (HT-29): 26.9 µM (inactive)
- GI50 (RPMI-8226): 4.05 µM (inactive)
- GI50 (MDA-N): > 78.5 µM (inactive)
- GI50 (UO-31): 9.95 µM (inactive)
- GI50 (OVCAR-4): > 100 µM (inactive)
- GI50 (SF-268): > 93.1 µM (inactive)
- GI50 (SW-620): > 100 µM (inactive)
- GI50 (MCF7): 21.7 µM (inactive)
- GI50 (SNB-75): > 46.7 µM (inactive)
- GI50 (786-0): 23.4 µM (inactive)
- GI50 (CAKI-1): > 100 µM (inactive)
- GI50 (SR): 3.24 µM (inactive)
- GI50 (NCI/ADR-RES): 52.2 µM (inactive)
- GI50 (SK-MEL-2): 44.6 µM (inactive)
- GI50 (SK-OV-3): > 93.1 µM (inactive)
- GI50 (SN12C): 75.3 µM (inactive)
- GI50 (M14): > 100 µM (inactive)
- GI50 (NCI-H522): 7.83 µM (inactive)

SMILES: COc1ccc(N2C(=O)C(C)SC2c2cc3cc(Br)ccc3nc2Cl)cc1 (configuration not stated)
- GI50 (UACC-62): 26.2 µM (inactive)
- GI50 (A498): 46.8 µM (inactive)
- GI50 (OVCAR-8): 37.5 µM (inactive)
- GI50 (UACC-257): 30.7 µM (inactive)
- GI50 (BT-549): 24.9 µM (inactive)
- GI50 (HCC 2998): 33.3 µM (inactive)
- GI50 (NCI-H23): 33.6 µM (inactive)
- GI50 (TK-10): 38.6 µM (inactive)
- GI50 (RXF 393): 28.8 µM (inactive)
- GI50 (HCT-15): 32.9 µM
- GI50 (PC-3): 25.4 µM (inactive)
- GI50 (NCI-H460): 30.9 µM (inactive)
- GI50 (HL-60): 24.8 µM (inactive)
- GI50 (SNB-19): 25.6 µM (inactive)
- GI50 (KM12): 30.8 µM (inactive)
- GI50 (COLO 205): 35.5 µM (inactive)
- GI50 (MOLT-4): 20.9 µM (inactive)
- GI50 (MDA-MB-435): 19.7 µM (inactive)
- GI50 (SF-295): 33.1 µM (inactive)
- GI50 (IGROV-1): 7.93 µM (inactive)
- GI50 (HCT-116): 37.8 µM (inactive)
- GI50 (HOP-62): 36.2 µM (inactive)
- GI50 (Malme-3M): 82.4 µM (inactive)
- GI50 (SK-MEL-5): 36.1 µM (inactive)
- GI50 (SK-MEL-28): 38.1 µM (inactive)
- GI50 (Hs-578T): 38.5 µM (inactive)
- GI50 (EKVX): 21.6 µM (inactive)
- GI50 (LOX IMVI): 33 µM (inactive)
- GI50 (MDA-MB-231): 31.6 µM (inactive)
- GI50 (NCI-H226): 55.3 µM (inactive)
- GI50 (DU-145): 57.3 µM (inactive)
- GI50 (A549): 12.4 µM (inactive)
- GI50 (T47D): 34.3 µM (inactive)
- GI50 (K562): 31.3 µM (inactive)
- GI50 (OVCAR-5): 57.9 µM (inactive)
- GI50 (OVCAR-3): 34.9 µM (inactive)
- GI50 (CCRF-CEM): 26.6 µM (inactive)
- GI50 (HOP-92): 22.9 µM (inactive)
- GI50 (SF-539): 27.4 µM (inactive)
- GI50 (ACHN): 48.8 µM (inactive)
- GI50 (HT-29): 32.4 µM (inactive)
- GI50 (RPMI-8226): 32.7 µM (inactive)
- GI50 (MDA-N): 28.5 µM (inactive)
- GI50 (UO-31): 33.6 µM (inactive)
- GI50 (OVCAR-4): 27.8 µM (inactive)
- GI50 (SF-268): 38.3 µM (inactive)
- GI50 (SW-620): 30.4 µM (inactive)
- GI50 (MCF7): 33.2 µM (inactive)
- GI50 (SNB-75): 91 µM (inactive)
- GI50 (786-0): 45.8 µM (inactive)
- GI50 (CAKI-1): 35.1 µM (inactive)
- GI50 (SR): 18.1 µM (inactive)
- GI50 (NCI/ADR-RES): 24.3 µM (inactive)
- GI50 (SK-MEL-2): 19.7 µM (inactive)
- GI50 (SK-OV-3): 59.8 µM (inactive)
- GI50 (SN12C): 35.2 µM (inactive)
- GI50 (M14): 44.4 µM (inactive)
- GI50 (NCI-H522): 21.3 µM (inactive)
